Data set [1] concerns CHO-K1 cells. Kind of data set: Complement dependent cell cytotoxicity/cell lysis (CDC) assay. Format: cell-based. Here is the method: The assays below quantify both the amount of α-Gal BOEL inserted into the cell plasma membranes and the functional impact of α-Gal BOEL insertion in stimulating anti-Gal mediated complement-dependent cytotoxicity (CDC). α-Gal BOEL is titrated and incubated with CHO-K1 cells. These cells are either fixed and used in a whole cell ELISA assay, to determine incorporation of α-Gal into membranes, or incubated with anti-Gal antibody and human serum to measure CDC (or general cytotoxicity in the absence of complement from human serum).
(§1) α-Gal BOEL is titrated as follows. One 40 μl aliquot of α-Gal BOEL (2 mg/ml (obtained from Sigma as FSL-Galili(tri)™, Catalogue No. F9432)) is thawed and sonicated for 30 seconds. 40 μl of phosphate buffered saline (PBS) is added to the tube and vortexed for 10 seconds. 25 μl of this mix is added to 55 μl of PBS and mixed well. These dilutions are repeated to give a full titration of α-Gal BOEL in the desired concentration range.
CHO-K1 cells, which lack α-Gal epitopes, are resuspended in Dulbecco's PBS (DPBS) at 37° C. and centrifuged at 1000 rpm for 5 minutes. […]
An aliquot of the cell suspension (45 μl) is transferred to all tubes of α-Gal BOEL and mixed gently by inversion and incubated for 30 minutes at 37° C. […] The cell suspension (25 μl) is transferred either to an assay plate (standard white 96-well plate for luminescence readout (available from Corning)) to perform the CDC assay (A) or 50 μl transferred to a poly-d-lysine coated plate (available from Sigma) for the in-cell ELISA (B) to measure incorporation into cell membranes.
Anti-Gal antibody (from a range of sources, mouse anti-Gal containing plasma in this example) is added (25 μl/well) to the CDC assay plate (A) and then incubated for 30 minutes at 37° C. […] The human serum (containing active complement) is diluted in warm media (to a pre-determined level by titration in the assay) and 50 μl added to each well. […] This reagent luminescence is proportional to the […]. […] Luminescence output is measured using a standard 96-well plate reader (see FIG. 3).

The test system of data set [2] is monoclonal mouse anti-Gal IgM (M86 hybridoma supernatant). Kind of data set: ELISA to demonstrate binding to anti-Gal antibodies. The following applies: α-Gal BOEL dried in ELISA wells, serial dilution from 2 mg/ml. Here is the method: A 96-well plate is first coated with α-Gal BOEL (obtained from Sigma as FSL-Galili(tri)™, Catalogue No. F9432). 50 μL PBS is added to each well. α-Gal BOEL is resuspended in PBS to a concentration of 2 mg/ml and 50 μL added to a well. Serial dilutions are performed by transferring 50 μL into wells across the plate making sure that each well is thoroughly mixed before transfer. The plate is left overnight to dry.
150 μL of blocking buffer (1×PBS/1% BSA) is added to the dry wells. The plate is covered and incubated at 37° C. for 2 hours. The well contents are discarded and the wells washed with PBS. 50 μL of the primary anti-Gal antibody (monoclonal mouse anti-Gal IgM in this example, M86 hybridoma supernatant) is added to each well. The plate is incubated at room temperature for 2 hours. The plate is washed 3 times with 200 μL washing buffer (1×PBS, 0.05% Tween).
50 μL of secondary goat anti-mouse IgM-HRP solution (Accurate Chemical; Catalogue No. JGM035020) is added to each well. The plate is covered and incubated at room temperature for 1 hour and then is washed 3 times with 200 μL washing buffer. 100 μL of a standard OPD (o-Phenylenediamine dihydrochloride) solution (e.g. Sigma; Catalogue No. P8287) is added to each well, incubated for 5 minutes and then 50 μL of stop solution (1 M sulfuric acid) is added. The well absorbances are immediately read at 492 nm (A492) (see FIG. 2).
(ELISA stands for enzyme-linked immunosorbent assay.)

In data set [3] the test system is CHO-K1 cells. The experiment in a line: In-cell ELISA to measure incorporation of α-Gal BOEL into cells. Type of data set: cell-based. The following applies: CHO-K1 cells incubated 30 minutes at 37° C.; M86 primary antibody. Here is the method: as §1
(§2) CHO-K1 cells, which lack α-Gal epitopes, are resuspended in Dulbecco's PBS (DPBS) at 37° C. and centrifuged at 1000 rpm for 5 minutes. The supernatant is aspirated and the cell pellet resuspended to 1×10^7 cells/ml in 450 μl DPBS (37° C.). The cell pellet is washed again to remove all traces of serum.
(§3) An aliquot of the cell suspension (45 μl) is transferred to all tubes of α-Gal BOEL and mixed gently by inversion and incubated for 30 minutes at 37° C. […] The cell suspension (25 μl) is transferred either to an assay plate (standard white 96-well plate for luminescence readout (available from Corning)) to perform the CDC assay (A) or 50 μl transferred to a poly-d-lysine coated plate (available from Sigma) for the in-cell ELISA (B) to measure incorporation into cell membranes. […]
100 μL/well of TMB Substrate is added the plate incubated at room temperature, protected from light. […] The absorbance at 450 nm is measured within 30 minutes of stopping the reaction (see FIG. 5).

Data set [4] relates to CHO-K1 cells. The experiment in a line: Complement deposition assay (flow cytometry), human serum. Type of data set: cell-based. Conditions: 500 μg/ml, 2.5% human serum. Here is the method:
(§4) 1×10^6 B16-F10 and CHO-K1 cells were harvested from growing cultures and incubated with 500 μg/ml αGal BOEL in PBS for 1 hour at 37° C., after which the cells were washed 3 times with PBS. After washing the CHO-K1 cells were incubated with either 2.5% normal (NHS) or heat-inactivated (HI NHS) human serum for 10 minutes at 37° C. The B16-F10 cells were incubated with either 2.5% serum from normal GT−/− mice (NMS) or 2.5% serum from pig kidney homogenate immunised mice (I NMS) for 10 minutes at 37° C. The cells were placed on ice and washed twice with ice-cold cell staining buffer (PBS+0.1% BSA). The cells were incubated with either anti-C3b (C3b, Pierce MAI-70054, diluted 1:1000 in cell staining buffer) or anti-SC5b-9 (MAC, Quidel A239, diluted 1:100 in cell staining buffer) for 30 minutes on ice. The cells were washed twice with ice cold cell staining buffer and incubated with FITC goat anti-mouse IgG (Abcam ab97022, diluted 1:2000 in cell staining buffer) for 30 minutes on ice. After 2 further washes with ice-cold cell staining buffer the cells were resuspended in ice-cold cell staining buffer plus 7-AAD (Biolegend 420403). The cells were analysed using a Beckman Coulter Cytomics FC500 flow cytometer, with data captured in the FL-1 channel. Data on the histograms presented are gated on live cells.
A general note: In flow cytometry, cells or beads pass a laser one at a time.

The subject of data set [5] is B16-F10 cells. The experiment in a line: Complement deposition assay (flow cytometry), mouse serum. Format: cell-based. Conditions: B16 mouse melanoma cells, 500 μg/ml, 2.5% mouse serum. Here is the method:
as §4

Data set [6] concerns B16-F10 melanoma cells. The experiment in a line: GT KO mouse melanoma model, distal tumour development. Type of data set: in vivo. Here is the method: FIG. 7: Dose titration experiments with α-Gal BOEL. Anti-Gal producing GT KO mice were injected with 1×10^6 B16-F10 melanoma cells for primary tumour growth on their right flanks and 1×10^4 B16-F10 cells for secondary/distal tumour injection on the opposite flank. 5 days later, the main tumours were intra-tumourally treated with PBS (open circles), or 0.1 mg α-Gal BOEL (open triangles), or 0.5 mg α-Gal BOEL (closed triangles), or 1 mg of α-Gal BOEL (closed circles). The development of visible distal tumours as model for metastases development was followed for up to 32 days. The percentages of mice without visible distal tumours are plotted in the graphs. Statistical differences between the groups were determined by log-rank test.
FIG. 8: α-Gal BOEL activity in anti-Gal producing mice (i.e mice immunized with pig kidney membranes) or mice lacking anti-Gal (i.e. non-immunized mice). Hyper-immunized or non-immunized GT KO mice were injected with 1×10^6 B16-F10 cells for primary tumour growth on their right flanks and either 1×10^4 B16-F10 cells for secondary/distal tumour injection on the opposite flank. 4 days later, the main tumours were intra-tumourally treated with PBS in hyper-immunized mice (open circles), or 1 mg α-Gal BOEL (closed circles for hyper-immunized mice; open squares for non-immunized mice). The development of visible distal tumours as model for metastases development was followed for up to 28 days. The percentages of mice without visible distal tumours are plotted in the graph. Statistical differences between the groups were determined by log-rank test.
In vivo pharmacodynamics experiments were conducted to assess the effects of α-Gal BOEL in a GT KO mouse melanoma model with B16-F10 melanoma cells. […] As a result, the GT KO mice can be immunized with pig kidney membrane homogenate to produce titers of IgG and IgM anti-Gal antibodies that are similar to those seen naturally in humans. Such an immune response is induced since pig kidney membranes contain a high concentration of α-Gal epitopes on cell membranes and in intercellular matrix.
In the B16-F10 melanoma model, mice were injected with cultured B16-F10 cells on both flanks, on one side they were injected with 1×10^6 melanoma cells to create a primary tumour and with a reduced cell number on the contra-lateral flank (1×10^4 melanoma cells) to create a model of a ‘distant metastasis’ also referred to as secondary tumour. Primary tumours are injected intratumourally with α-Gal BOEL or vehicle control when a predefined tumour diameter is reached. The critical endpoint recorded is growth of the ‘distant’ tumour; this is used to measure the ability of an agent to elicit an effective protective anti-tumour immune response throughout the body. Doses from 0.1-2.5 mg of α-Gal BOEL were tested.

The subject of data set [7] is CHO-K1 cells. The experiment in a line: General cellular toxicity (CDC procedure without human serum). Type of data set: cell-based. Conditions: absence of human serum; up to 500 μg/ml; CellTitreGlo. Here is the method: as §1, §2, §3
General cellular toxicity was measured by following the CDC assay procedure above but replacing human serum with pre-warmed media. […]

In brackets after ≈: the same amount, converted by molar mass. Several values for one entry are separate records, joined by “and”; a condition that tells them apart may be missing. Equal values may be shown once. Read-outs that look alike come from different tables or passages of the source.

Regarding `CCCCCCCC/C=C\CCCCCCCC(=O)OC[C@H](COP(=O)(O)OCCNC(=O)CCCCC(=O)NCCCO[C@@H]1OC(CO)[C@@H](O[C@@H]2OC(CO)[C@H](O)[C@H](O[C@H]3OC(CO)[C@H](O)[C@H](O)C3O)C2O)[C@H](O)C1NC(C)=O)OC(=O)CCCCCCC/C=C\CCCCCCCC` (stereo partly drawn) [α-Gal BOEL, (9Z,9′Z)-(2R)-3-(((2-(6-((3-(((2R,3R,4R,5S,6R)-3-acetamido-5-(((2S,3R,4S,5S,6R)-3,5-dihydroxy-6-(hydroxymethyl)-4-(((2R,3R,4S,5R,6R)-3,4,5-trihydroxy-6-(hydroxymethyl)tetrahydro-2H-pyran-2-yl)oxy)tetrahydro-2H-pyran-2-yl)oxy)-4-hydroxy-6-(hydroxymethyl)tetrahydro-2H-pyran-2-yl)oxy)propyl)amino)-6-oxohexanamido)ethoxy)(hydroxy)phosphoryl)oxy)propane-1,2-diyl bis(octadec-9-enoate)], the EC50 was 1.36 µg/mL (≈ 0.934 µM) in data set [1] (Cricetulus griseus, CHO-K1, inhibition of CDC, CHO-K1 cells, mouse anti-Gal plasma, human serum, CellTiterGlo, single independent experiment, read-out: EC50); 1.35 µg/mL (≈ 0.927 µM) in data set [1] (Cricetulus griseus, CHO-K1, inhibition of CDC, over 4 independent experiments, read-out: Geomean / mean EC50); 1.24 µg/mL and 1.38 µg/mL and 1.43 µg/mL in data set [1] (inhibition of CDC, CHO-K1 cells, mouse anti-Gal plasma, human serum, CellTiterGlo, single independent experiment). For the same compound, the “binding of monoclonal anti-Gal antibody (A492)” value in data set [2] is “binds to α-Gal epitopes on the α-Gal BOEL molecules”. For the same compound, the “incorporation into cells (absorbance at 450 nm)” value in data set [3] is on record as “can be detected on the surface of CHO-K1 cells”. Besides, the “deposition of complement protein C3b” value in data set [4] and in data set [5] was “leads to the deposition” each time. Further, the “deposition of complement protein MAC” value in data set [4] and in data set [5] was “leads to the deposition” each time. Besides, the “mice protected from secondary tumour development” value in data set [6] (1 mg intratumoural, anti-Gal producing (immunized) GT KO mice, up to 28 days) was determined as 80%. Further, the “degree of protection versus 0.1-mg and 0.5-mg doses” value in data set [6] (1 mg intratumoural, anti-Gal producing GT KO mice, up to 32 days) was “higher degree of protection”. Besides, the “protective activity against secondary tumour development” value in data set [6] (1 mg intratumoural, non-immunized GT KO mice (lacking anti-Gal)) is “lacked protective activity”. Further, in data set [6] (0.1-mg to 1-mg intratumoural doses in 100 μL vehicle, side-by-side, anti-Gal producing GT KO mice), the “activity response across doses (protection from distal tumour)” value was “dose-dependent activity response”. In addition, in data set [7], the “impact on cell viability / overt cytotoxicity” value was “no impact on cell viability”.

The values above are taken from US10092586B2, “Glycolipid containing compositions for use in the treatment of tumors” (Agalimmune Limited (GB/GB), priority 2014, dated 2018).
